Measured values as given in patent US10590085B2, “Heterocyclic amides as kinase inhibitors” (GlaxoSmithKline Intellectual Property Development Limited, priority 2015, dated 2020).

Tested on: human monocytic leukemia U937 cells
Assay: necroptosis assay in U937 cells
Assay type: cell-based
Conditions: Homo sapiens, U-937, U937 cells; viability by cellular ATP (Cell Titer-Glo); read-out: mean pIC50, inhibition of necrosis in U937 cells (converted)
Experimental: The efficacy of RIP1 inhibitors can be tested […] in vitro using a human monocytic leukemia U937 or mouse L929 fibrosarcoma cells in a necroptosis assay. As determined using the method described in He, S. et al. 2009. Cell 137(6):1100-1111 and International Patent Appln. No. PCT/IB2014/059004, now, International Patent Appln. Pub.
Viability was measured by quantitating cellular levels of ATP using the Cell Titer-Glo kit. All data are means±standard deviation of the mean.

## O=C(C1CCN(c2ccccc2)CC1)N1N=CCC1c1ccccc1 (centres unmarked) [Example 18, (5-phenyl-4,5-dihydro-1H-pyrazol-1-yl)(1-phenylpiperidin-4-yl)-methanone]
  IC50: 1 to 100 nM

## Cc1ccc(C(=O)N2CCC(C(=O)N3N=CCC3c3ccccc3)CC2)s1 (centres unmarked) [Example 122, (5-methylthiophen-2-yl)(4-(5-phenyl-4,5-dihydro-1H-pyrazole-1-carbonyl)piperidin-1-yl)methanone]
  IC50: 1 to 100 nM

## CC(C)(C)C(=O)N1N=CCC1c1ccc(Cl)cc1 (centres unmarked) [Example 65, 1-(5-(4-chloro-phenyl)-4,5-dihydro-1H-pyrazol-1-yl)-2,2-dimethyl-propan-1-one]
  IC50: 1 to 100 nM

## O=C(C1CCN(c2ncc(F)cn2)CC1)N1N=CCC1c1ccccc1 (centres unmarked) [Example 6, (1-(5-fluoropyrimidin-2-yl)piperidin-4-yl)(5-phenyl-4,5-dihydro-1H-pyrazol-1-yl)methanone]
  IC50: 1 to 100 nM

## O=C(c1cocn1)N1CCC(C(=O)N2N=CCC2c2ccccc2)CC1 (centres unmarked) [Example 114, oxazol-4-yl(4-(5-phenyl-4,5-dihydro-1H-pyrazole-1-carbonyl)piperidin-1-yl)methanone]
  IC50: 1 to 100 nM

## CC(C)(C)C(=O)N1N=CCC1c1cccc(Cl)c1 (stereo not drawn) [Example 43, 1-(5-(3-chlorophenyl)-4,5-dihydro-1H-pyrazol-1-yl)-2,2-dimethyl propan-l-one]
  IC50: 1 to 100 nM

## O=C(c1ccc(F)cc1F)N1CCC(C(=O)N2N=CCC2c2ccccc2)CC1 (centres unmarked) [Example 131, (1-(2,4-difluorobenzoyl)piperidin-4-yl)(5-phenyl-4,5-dihydro-1H-pyrazol-1-yl)-methanone]
  IC50: 1 to 100 nM

## O=C(c1nccs1)N1CCC(C(=O)N2N=CCC2c2ccccc2)CC1 (centres unmarked) [Example 112, (5-phenyl-4,5-dihydro-1H-pyrazol-1-yl)(1-(thiazole-2-carbonyl)piperidin-4-yl)methanone]
  IC50: 1 to 100 nM

## O=C(c1nc2ccccc2s1)N1CCC(C(=O)N2N=CCC2c2ccccc2)CC1 (centres unmarked) [Example 139, beno[d]thiazol-2-yl(4-(5-phenyl-4,5-dihydro-1H-pyrazole-1-carbonyl)piperidin-1-yl)methanone]
  IC50: 1 to 100 nM

## O=C(C1CCN(c2ncccn2)CC1)N1N=CCC1c1ccccc1 (centres unmarked) [Example 171, (5-phenyl-4,5-dihydro-1H-pyrazol-1-yl)(1-(pyrimidin-2-yl)piperidin-4-yl)methanone]
  IC50: 1 to 100 nM

## O=C(C1CCN(c2ccccc2)CC1)N1N=CC[C@H]1c1ccccc1 [Example 19, (S)-(5-phenyl-4,5-dihydro-1H-pyrazol-1-yl)(1-phenyl-piperidin-4-yl)-methanone]
  IC50: 1 to 100 nM

## CC1=NN(C(=O)C(C)(C)C)C(c2ccccc2)C1 (centres unmarked) [Example 81, 2,2-dimethyl-1-(3-methyl-5-phenyl-4,5-dihydro-1H-pyrazol-1-yl)-propan-1-one]
  IC50: ~631 nM

## N#Cc1ccc(C2CC=NN2C(=O)C2CCN(c3ncc(F)cn3)CC2)cc1 (centres unmarked) [Example 188, 4-(1-(1-(5-fluoropyrimidin-2-yl)piperidine-4-carbonyl)-4,5-dihydro-1H-pyrazol-5-yl)benzonitrile]
  IC50: 1 to 100 nM

## CC1=NN(C(=O)C2CCN(c3ncc(F)cn3)CC2)C(c2ccccc2)C1 (centres unmarked) [Example 87, (1-(5-fluoro-pyrimidin-2-yl)-piperidin-4-yl)(3-methyl-5-phenyl-4,5-dihydro-1H-pyrazol-1-yl)-methanone]
  IC50: 1 to 100 nM

## CC(C)(C)C(=O)N1N=CC[C@H]1c1cccnc1 [Example 42, (S)-2,2-dimethyl-1-(5-(pyridin-3-yl)-4,5-dihydro-1H-pyrazol-1-yl)-propan-1-one]
  IC50: ~251 nM

## Cc1ccc(C2CC=NN2C(=O)C(C)(C)C)c(F)c1 (centres unmarked) [Example 53, 1-(5-(2-fluoro-4-methylphenyl)-4,5-dihydro-1H-pyrazol-1-yl)-2,2-dimethyl-propan-1-one]
  IC50: 1 to 100 nM

## O=C(C1CCN(c2ncc(F)cn2)CC1)N1N=CCC1c1ccc(OC(F)F)cc1 (stereo not drawn) [Example 185, (5-(4-(difluoromethoxy)phenyl)-4,5-dihydro-1H-pyrazol-1-yl)(l-(5-fluoropyrimidin-2-yl)piperidin-4-yl)methanone]
  IC50: 1 to 100 nM

## Cc1cccc(C(=O)N2N=CCC2c2ccccc2)c1 (centres unmarked) [Example 23, (5-phenyl-4,5-dihydro-1H-pyrazol-1-yl)(m-tolyl) methanone]
  IC50: ~501 nM

## O=C(c1ccns1)N1CCC(C(=O)N2N=CCC2c2ccccc2)CC1 (centres unmarked) [Example 125, isothiazol-5-yl(4-(5-phenyl-4,5-dihydro-1H-pyrazole-1-carbonyl)piperidin-1-yl)methanone]
  IC50: 1 to 100 nM

## O=C(C1CCN(c2ccccn2)CC1)N1N=CC[C@H]1c1ccccc1 [Example 177, (S)-(5-phenyl-4,5-dihydro-1H-pyrazol-1-yl)(1-(pyridin-2-yl)piperidin-4-yl)methanone]
  IC50: 1 to 100 nM

## O=C(C1CCN(c2ccc(C(F)(F)F)cn2)CC1)N1N=CCC1c1ccccc1 (centres unmarked) [Example 179, (5-phenyl-4,5-dihydro-1H-pyrazol-1-yl)(1-(5-(trifluoromethyl)pyridin-2-yl)piperidin-4-yl)methanone 2,2,2-trifluoroacetate]
  IC50: 1 to 100 nM

## CC(C)(C)C(=O)N1N=CCC1c1cccc(F)c1 (centres unmarked) [Example 67, 1-(5-(3-fluoro-phenyl)-4,5-dihydro-1H-pyrazol-1-yl)-2,2-dimethylpropan-1-one 2,2,2-trifluoroacetate]
  IC50: 1 to 100 nM

## O=C(C1CCN(c2ccccn2)CC1)N1N=CCC1c1ccccc1 (centres unmarked) [Example 176, (5-phenyl-4,5-dihydro-1H-pyrazol-1-yl)(1-(pyridin-2-yl)piperidin-4-yl)methanonc 2,2,2-trifluoroacctate]
  IC50: 1 to 100 nM

## Cn1cccc1C(=O)N1CCC(C(=O)N2N=CCC2c2ccccc2)CC1 (centres unmarked) [Example 175, (1-methyl-1H-pyrrol-2-yl)(4-(5-phenyl-4,5-dihydro-1H-pyrazole-1-carbonyl)piperidin-1-yl)methanone 2,2,2-trifluoroacetalc]
  IC50: 1 to 100 nM

## O=C(c1ccc(F)cn1)N1CCC(C(=O)N2N=CCC2c2ccccc2)CC1 (centres unmarked) [Example 108, (1-(5-fluoro-picolinoyl)piperidin-4-yl)(5-phenyl-4,5-dihydro-1H-pyrazol-1-yl)methanone]
  IC50: 1 to 100 nM

## O=C(c1ccccc1)N1CCC(C(=O)N2N=CCC2c2ccccc2)CC1 (centres unmarked) [Example 164, (1-benzoylpiperidin-4-yl)(5-phenyl-4,5-dihydro-1H-pyrazol-1-yl)methanone]
  IC50: 1 to 100 nM

## O=C(C1CCN(c2ncc(F)cn2)CC1)N1N=CCC1c1ccc2c(c1)CCC2 (centres unmarked) [Example 184, (5-(2.3-dihydro-1H-inden-5-yl)-4,5-dihvdro-1H-pyrazol-1-yl)(1-(5-fluoropyrimidin-2-yl)piperidin-4-yl)methanone]
  IC50: 1 to 100 nM

## O=C(c1n[nH]c2ccccc12)N1CCC(C(=O)N2N=CCC2c2ccccc2)CC1 (centres unmarked) [Example 140, (1-(1H-indazole-3-carbonyl)piperidin-4-yl)(5-phenyl-4,5-dihydro-1H-pyrazol-1-yl)methanone]
  IC50: 1 to 100 nM

## O=C(c1ncco1)N1CCC(C(=O)N2N=CCC2c2ccccc2)CC1 (centres unmarked) [Example 148, oxazol-2-yl(4-(5-phenyl-4,5-dihydro-1H-pyrazole-1-carbonyl)piperidin-1-yl)methanone]
  IC50: 1 to 100 nM

## O=C(c1ccon1)N1CCC(C(=O)N2N=CCC2c2ccccc2)CC1 (centres unmarked) [Example 153, isoxazol-3-yl(4-(5-phenyl-4,5-dihydro-1H-pyrazole-1-carbonyl)piperidin-1-yl)methanone]
  IC50: 1 to 100 nM

## O=C(c1cnco1)N1CCC(C(=O)N2N=CCC2c2ccccc2)CC1 (centres unmarked) [Example 147, oxazol-5-yl(4-(5-phenyl-4,5-dihydro-1H-pyrazole-1-carbonyl)piperidin-1-yl)methanone]
  IC50: 1 to 100 nM

## O=C(c1cccs1)N1N=CCC1c1ccccc1 (centres unmarked) [Example 174, (5-phenyl-4,5-dihydro-1H-pyrazol-1-yl)(thiophen-2-yl)methanone 2,2,2-trifluoroacetate]
  IC50: ~501 nM

## CC(C)(C)C(=O)N1N=CC[C@H]1c1ccc(C#N)cc1 [Example 79, (S)-4-(1-pivaloyl-4,5-dihydro-1H-pyrazol-5-yl)-benzonitrile]
  IC50: 1 to 100 nM

## Cc1cc(F)cc(C2CC=NN2C(=O)C(C)(C)C)c1 (centres unmarked) [Example 76, 1-(5-(3-fluoro-5-methylphenyl)-4,5-dihydro-1H-pyrazol-1-yl)-2,2-dimethyl-propan-1-one]
  IC50: 1 to 100 nM

## CC(C)(C)C(=O)N1N=CCC1c1cccc(C#N)c1 (centres unmarked) [Example 80, 3-(1-pivaloyl-4,5-dihydro-1H-pyrazol-5-yl)benzonitrile]
  IC50: 1 to 100 nM

## O=C(C1CCN(c2ncc(F)cn2)CC1)N1N=CCC1c1cncc(F)c1 (centres unmarked) [Example 9]
  IC50: 1 to 100 nM

## O=C(C1CCN(c2ncc(F)cn2)CC1)N1N=CC[C@H]1c1cncc(F)c1 [Example 10, (S)-(5-(5-fluoropyridin-3-yl)-4,5-dihydro-1H-pyrazol-1-yl)(1-(5-fluoro-pyrimidin-2-yl)piperidin-4-yl)methanone]
  IC50: 1 to 100 nM

## O=C(c1ccccc1)N1N=CCC1c1ccccc1 (centres unmarked) [Example 64, phenyl(5-phenyl-4,5-dihydro-1H-pyrazol-1-yl)-methanone 2,2,2-trifluoroacetate]
  IC50: ~316 nM

## O=C(c1cscn1)N1CCC(C(=O)N2N=CCC2c2ccccc2)CC1 (centres unmarked) [Example 154, (5-phenyl-4,5-dihydro-1H-pyrazol-1-yl)(1-(thiazole-4-carbonyl)piperidin-4-yl)methanone]
  IC50: 1 to 100 nM

## O=C(c1noc2ccccc12)N1CCC(C(=O)N2N=CCC2c2ccccc2)CC1 (centres unmarked) [Example 146, benzo[d]isoxazol-3-yl(4-(5-phenyl-4,5-dihydro-1H-pyrazole-1-carbonyl)piperidin-1-yl)methanone]
  IC50: 1 to 100 nM

## O=C(c1ccc(F)cc1)N1CCC(C(=O)N2N=CCC2c2ccccc2)CC1 (centres unmarked) [Example 130, (1-(4-fluoro-benzoyl)piperidin-4-yl)(5-phenyl-4,5-dihydro-1H-pyrazol-1-yl)methanone]
  IC50: 1 to 100 nM
